Test results taken from patent publication US20080038349A1, “Peptide-Pna Chimera Targeting Inducible Nitric Oxide Synthetase” (priority 2004, published 2008).
{Gly} = glycine residue at the PNA end written 3'; {Lys} = lysine residue at the PNA end written 5'

What was measured:
macrophags iNOS = conditions: in vitro, macrophages; cited from earlier work
[1] = test system: Sense 5′-3′: GAA AGA GGA AAA GG; assay: Hybridization experiments (Tm from UV melting curves); type: binding; conditions: for Tm (temperature of melting, hybridization): vs sense DNA, duplex 5 μM, 10 mM phosphate buffer, 100 mM NaCl, 0.1 mM EDTA, pH=7
Protocol: The DNA sequences used in the hybridization experiments were purchased from (Sigma; USA). A PNA sequence was purchased from Bio-Synthesis Inc. (Lewisville, USA). All hybrid samples reported were first incubated at 90° C. for 5 minutes, then slowly cooled at room temperature. The Duplex concentration of the various samples was 5 μM. All hybridization experiments were carried out in a 10 mM phosphate buffer, 100 mM NaCl, 0.1 mM EDTA, pH=7. Temperature was monitored by an internal thermocouple, at an accuracy of ±0.3° C. Melting curves were recorded by heating the samples (1° C./min) with a 2-min. hold time by UV signal at 260 nm. Melting temperatures were taken as the maximum of the first derivative of the melting curves. UV absorbance measurements were performed on a Varian Cart 5E UV-VIS-NIR spectrophotometer equipped with a Cary temperature controller, in 1-cm quartz cells.
The modifications on the PNA chain although improving bioavailability can diminish activity (hybridization). To examine the effect of modifications on activity properties an experiment was conducted to examine the hybridization properties (determined by changes in temperature of melting or Tm) KBP-10 sequence. Tm value (39.5° C.) was almost the same as predicted calculated value based on sequence (40° C.).

Multiple Sclerosis Model = assay: Multiple sclerosis model (MOG 35-55 inoculated mice); type: in vivo; conditions: 10 mg/kg for 10 consecutive days
Protocol: Mice (female, Cpb 57B1/6; Harlan) were inoculated with ecephalitogenic peptide (MOG 35-55; synthesized at the Hebrew university) emulsified with CFA and pertussis toxin (Sigma) and in the same time were treated with CH(K)6HC-O-5′CTTTCTCCTTTTCC3′-O-HAIYPRH (KBP-11; 10 mg/kg; n=3) or with vehicle solution (control group; n=4) for 10 consecutive days, starting a day after the inoculation of MOG.
At the end the experiment (day 30) animals were scarified and brain tissue were send to histological (H&E analysis) and immunohistochemical (iNOS expression) analysis.

cells in culture = conditions: cited from earlier work
[2] = starting a day after MOG inoculation, n=3

3′-Gly-CTTTCTCCTTTTCC-Lys 5′ (all peptide nucleic acid (PNA), 5' {Lys}, 3' {Gly}) [PNA targeting macrophage iNOS]
iNOS expression (macrophags iNOS): specifically diminished its expression

CH(K)6HC-O-5′CTTTCTCCTTTTCC3′-O-HAIYPRH [KBP-11]
Effect of peptide modification on hybridization properties ([1]; modified PNA vs. ODN, FIG. 1): did not affect the hybridization properties
Tm (temperature of melting, hybridization) [1]: 39.00 °C
Incidence (Multiple Sclerosis Model; [2]): 1/3
Mean disease duration (Multiple Sclerosis Model; [2]): 6 days
Mean Score (Disease burden) (Multiple Sclerosis Model; clinical score 0-6): 0.4 ± 0.16

CHK6HC
Transfection of cells in culture (cells in culture): improved transfection of cells in culture

CTTTCTCCTTTTCC (chemistry not given here) [Oligodeoxynucleotide, reference compound]
Tm (temperature of melting, hybridization) [1]: 46.96 °C
